# Patent publication US12285459B2, “Saposin-A derived peptides and uses thereof” (CHILDREN'S MEDICAL CENTER CORPORATION, priority 2011, dated 2025)
# “And” between values parts separate entries of the source, which are not always exact repeats. Identical values can stand only once. Non-standard residues stand in square brackets, D forms with d. Residues, ends and D or L forms follow the SMILES beside them. No end group written: not given here. PEG2000 = polyethylene glycol 2000 attached at the N-terminus
# Assays:
# [1] = Peptide in plasma prepared from spiked mouse blood (partition into red blood cells), LC/MS; assay type: in vitro ADME, Swiss-Webster mice; conditions: for Concentration in Mouse Plasma Prepared From Mouse Blood Incubated with Each Peptide: 800 ng/mL in chilled mouse blood, plasma prepared after five minutes; for partition between plasma fraction and red blood cells: mouse blood, 800 ng/mL
# Experimental: (§1) human plasma (Lot #BCE012312PM1, K3 EDTA) was obtained from BioChemed Services (Winchester, VA) and was stored at −80° C. Young adult male Swiss-Webster mice were obtained from Taconic Farms, and were anesthetized with carbon dioxide, and exsanguinated by cardiac puncture. Blood was collected in to tubes containing K2 EDTA and cooled in ice. Plasma was prepared by centrifugation for 10 min at 3000 g and 4° C. Mouse plasma and blood was used on the day of harvest.
# The two peptides were formulated as for plasma and introduced into mouse blood chilled in an ice bath at a concentration of 800 ng/mL in duplicate. Five minutes after adding to blood, plasma was prepared and duplicate aliquots were extracted (as above) and analyzed by LC/MS.
# (§2) Processed standard curve and incubation samples were analyzed using the method described in Table 1. The concentration of peptide in plasma was determined by extrapolation from the standard curve.
# [2] = Peptide stability in mouse plasma, LC/MS; assay type: in vitro ADME, Swiss-Webster mice; conditions: for Concentration: 800 ng/mL, 37° C.; for Percent of Nominal: nominal 800 ng/mL
# Experimental: as §1
# (§3) Quenched matrix (human and mouse plasma) samples were prepared from one volume of plasma precipitated with three volumes of 9:1 acetonitrile:water at 4° C. and centrifuged for 10 min at 3000 g and 4° C., and the supernatant was used to prepare standard curve samples. A stock solution of 20 mg/mL Ac-DWLP-amide (SEQ ID NO: 133, Ac=acetyl group, amide=amide group) and 20 mg/mL Ac-dWlP-amide (SEQ ID NO: 132, DWLP with D-amino acids D and L indicated by lower case) was prepared in distilled water. Each peptide stock (20 mg/mL) was used to prepare a dilution in phosphate buffered saline (PBS) at 1 mg/mL and those samples were further diluted in PBS to prepare 100 and 50 μg/mL solutions. The 100 and 50 μg/mL solutions were added to the quenched matrix supernatant at concentrations equivalent to 0, 300, 1000, 3000, and 10000 ng/mL pre-quench plasma concentrations to prepare standard curve samples. Triplicate aliquots (100 μL) of each standard curve sample were diluted in 100 μL water prior to analysis by LC/MS.
# (§4) The two peptides were formulated in PBS (40 μg/mL), and incubated with human and mouse plasma at 37° C. in polypropylene tubes at a concentration of 800 ng/mL in duplicate. Incubation aliquots (100 μL) were removed at 0, 15, 30, and 60 min and immediately quenched by the addition of 300 μL 9:1 acetonitrile:water, vortexed and centrifuged for 10 min at 3000 g and 4° C. Then 100 μL of each supernatant was diluted with 100 μL PBS prior to analysis by LC/MS.
# as §2
# [3] = Peptide stability in human plasma, LC/MS; assay type: in vitro ADME; conditions: for stability in human plasma / Concentration: 800 ng/mL, 37° C.; for stability in human plasma: 1 h; for Concentration / Percent of Nominal: human plasma; for Percent of Nominal: nominal 800 ng/mL
# Experimental: as §1, §3, §4, §2
# [4] = mouse, in vivo; cited from earlier work
# [5] = test system: primary ovarian cancer cells; test: Intraperitoneal metastatic ovarian cancer model, bioluminescence; assay type: in vivo, CB-17 SCID mice; conditions: 2 mg/kg QOD from day 17
# Experimental: For metastatic ovarian cancer cell injections, 5×10^6 viable primary ovarian cancer cells were injected into CB-17 SCID mice intraperitoneally in a volume of 0.1 ml. Tumor growth was monitored by live animal bioluminescence imaging (Xenogen) once per week. For in vivo determination of the metastatic burden, mice were anaesthetized and injected intraperitoneally with 75 mg/kg of D-luciferin (100 uL of 30 mg/mL in PBS). Metastatic growth was monitored over time using bioluminescence imaging performed with mice in a supine position 5 min after D-luciferin injection with a Xenogen IVIS system coupled to Living Image acquisition and analysis software (Xenogen). For BLI plots, photon flux was calculated for each mouse by using the same circular region of interest encompassing the abdomen of the mouse.
# To determine whether DWLPK (SEQ ID NO: 4) could inhibit or regress existing ovarian metastases 5×10^6 primary ovarian cancer cells were injected intraperitoneally into SCID mice. After 17 days treatment was initiated with DWLPK (SEQ ID NO: 4) at a dose of 40 mg/kg QD, cisplatin at a dose of 2 mg/kg QOD, a combination of DWLPK (SEQ ID NO: 4) and cisplatin at the same doses, or PBS (control). It was observed that DWLPK (SEQ ID NO: 4) treatment completely regressed the metastases in 11/12 after 30 days and the regressed the metastases in the remaining mice by 99% (FIG. 20).
# Tsp-1 expression = conditions: previously shown; cited from earlier work
# [6] = test system: Tsp-1 and p53 expression in lungs; test: Tumor-free mice given PC3M-LN4 conditioned media plus peptide; Tsp-1/p53 in tissue by western blot; assay type: in vivo, C57Bl6 mice; conditions: PC3M-LN4 CM plus 30 mg/kg pegylated peptide daily, 9 days; compared with PC3 conditioned media
# Experimental: For tumor-free analysis C57Bl6 mice were treated with 200 uL of PC3M-LN4 media alone or in combination with peptides described above at dose of 30 mg/kg/day for 5 days. After treatment the animals were sacrificed and the lungs were harvested, lysed and analyzed for Tsp-1 and p53 protein levels as described previously (Kang et al).
# It was sought to determine whether there was a smaller domain within saposin A that contained the p53/Tsp-1 stimulating activity. […] C57Bl6 mice (5-6 wks old) were injected daily with 300 uL of serum free DMEM, conditioned media (CM) from non-metastatic PC3 cells, CM from metastatic PC3M-LN4 cells and PC3M-LN4 CM plus 30 mg/kg of the pegylated 6 amino acid polypeptide (PEG2000-CDWLPK (SEQ ID NO: 46)) or 30 mg/kg of the pegylated 18 amino acid polypeptide (PEG2000-[…] (SEQ ID NO: 47)). After 9 days the mice were euthanized and the lungs and livers harvested and either fixed in formalin or lysed for Western blot analysis.
# Finally, the effect of substituting D-amino acids at different residues of the 4-amino acid peptide was analyzed. By Western blot analysis it was observed that substituting the first and third or second and fourth residues, in combination, had no effect on the Tsp-1 stimulating activity in vitro. These peptides were then tested in the tumor-free animal model described above. The normal 4-amino acid peptide and the D-amino acid substituted peptides were injected in combination with conditioned media from PC3M-LN4 cells in adult C57Bl6 mice for 4 days at a dose of 10 or 30 mg/kg/day via i.p. injection. Mice were sacrificed 24 hours after the treatment on day 4. The lungs of these mice were harvested and analyzed the Tsp-1 expression by Western blot analysis. […]
# Methods: 18 C57Bl6 mice were injected with Ac-dWlP-amide (SEQ ID NO: 132) at a dose of 30 mg/kg in a volume of 100 μL via intraperitoneal (i.p) injections in serum starved conditioned media from PC3M-LN4 prostate cancer cells. […] The relative intensity of the Tsp-1 (normalized to β-Actin) bands were determined using a Bio-Rad Chemi-Doc XRS system.
compound,measurement,setting,value
CC(=O)N[C@@H](CC(=O)O)C(=O)N[C@@H](Cc1c[nH]c2ccccc12)C(=O)N[C@@H](CC(C)C)C(=O)N1CCC[C@H]1C(N)=O [Ac-DWLP-amide] (Ac-DWLP-NH2),Concentration in Mouse Plasma Prepared From Mouse Blood Incubated with Each Peptide,[1],1580 ng/mL and 1510 ng/mL and 1530 ng/mL and 1610 ng/mL
same,partition between plasma fraction and red blood cells,[1],remain primarily in the plasma fraction and do not partition into red blood cells
same,Concentration,[2]; 0 min,869 ng/mL and 955 ng/mL
same,Percent of Nominal,[2]; 0 min,108.6% and 119.4%
same,Concentration,[2]; 15 min,669 ng/mL and 605 ng/mL
same,Percent of Nominal,[2]; 15 min,83.6% and 75.6%
same,Concentration,[2]; 30 min,428 ng/mL and 400 ng/mL
same,Percent of Nominal,[2]; 30 min,53.5% and 50.0%
same,Concentration,[2]; 60 min,398 ng/mL and 463 ng/mL
same,Percent of Nominal,[2]; 60 min,49.8% and 57.9%
same,stability in human plasma,[3],good stability
same,Concentration,[3]; 0 min,649 ng/mL and 784 ng/mL
same,Percent of Nominal,[3]; 0 min,81.1% and 98.0%
same,Concentration,[3]; 15 min,760 ng/mL and 817 ng/mL
same,Percent of Nominal,[3]; 15 min,95.0% and 102.1%
same,Concentration,[3]; 30 min,538 ng/mL and 607 ng/mL
same,Percent of Nominal,[3]; 30 min,67.3% and 75.9%
same,Concentration,[3]; 60 min,634 ng/mL and 616 ng/mL
same,Percent of Nominal,[3]; 60 min,79.3% and 77.0%
CC(=O)N[C@H](CC(=O)O)C(=O)N[C@@H](Cc1c[nH]c2ccccc12)C(=O)N[C@H](CC(C)C)C(=O)N1CCC[C@H]1C(N)=O [Ac-dWlP-amide] (Ac-[dD]W[dL]P-NH2),Concentration in Mouse Plasma Prepared From Mouse Blood Incubated with Each Peptide,[1],1420 ng/mL and 1380 ng/mL and 1060 ng/mL and 1010 ng/mL
same,partition between plasma fraction and red blood cells,[1],remain primarily in the plasma fraction and do not partition into red blood cells
same,Concentration,[2]; 0 min,858 ng/mL and 859 ng/mL
same,Percent of Nominal,[2]; 0 min,107.3% and 107.4%
same,Concentration,[2]; 15 min,520 ng/mL and 462 ng/mL
same,Percent of Nominal,[2]; 15 min,65.0% and 57.8%
same,Concentration,[2]; 30 min,541 ng/mL and 496 ng/mL
same,Percent of Nominal,[2]; 30 min,67.6% and 62.0%
same,Concentration,[2]; 60 min,446 ng/mL and 469 ng/mL
same,Percent of Nominal,[2]; 60 min,55.8% and 58.6%
same,stability in human plasma,[3],stable
same,Concentration,[3]; 0 min,1050 ng/mL and 779 ng/mL
same,Percent of Nominal,[3]; 0 min,131.3% and 97.4%
same,Concentration,[3]; 15 min,941 ng/mL and 875 ng/mL
same,Percent of Nominal,[3]; 15 min,117.6% and 109.4%
same,Concentration,[3]; 30 min,863 ng/mL and 818 ng/mL
same,Percent of Nominal,[3]; 30 min,107.9% and 102.3%
same,Concentration,[3]; 60 min,1100 ng/mL and 901 ng/mL
same,Percent of Nominal,[3]; 60 min,137.5% and 112.6%
CO[C@@H]1[C@H](OC(=O)NC(=O)CCl)CC[C@]2(CO2)[C@H]1[C@@]1(C)O[C@@H]1CC=C(C)C [TNP-470],development of obesity in mice,[4],prevent diet-induced and genetic obesity
same,vascularity in the adipose tissue,[4],reduced vascularity in the adipose tissue
"N.N.[Cl][Pt][Cl] [cisplatin, reference compound]",course of tumors under cisplatin treatment,[5],developed resistance to cisplatin treatment after 20 days and began growing again
LEKTCDWLPKPNMSASCKEI,stimulating Tsp-1 expression in vitro and in vivo,Tsp-1 expression,capable of stimulating Tsp-1 expression in vitro and in vivo
PEG2000-CDWLPK,stimulating the expression of Tsp-1 in the lung and liver,[6],"as, or more, effective than PC3 conditioned media"
PEG2000-EKTCDWLPKPNMSASCKE (cysteine pairing not given here),stimulating the expression of Tsp-1 in the lung and liver,[6],"as, or more, effective than PC3 conditioned media"
